Test results taken from US7759345B2, “Antitumoral derivatives of ET-743” (priority 2001, dated 2010).

Assays:
[1] = tested on: HT-29; assay: Inhibition of cells growth by colorimetric assay (SRB), HT-29; format: cell-based; details: SRB, 48 hours exposure
Method in brief: (§1)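 Compound in DMSO/EtOH/PBS vehicle was applied at 10 to 10^−8 μg/ml to attached cells (5×10^3/well, 18 h) for 48 h. Cells were then fixed with cold TCA and stained with 0.4% SRB in 1% acetic acid.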

[2] = tested on: IGROV-1; assay: Inhibition of cells growth by colorimetric assay (SRB), IGROV-1; format: cell-based; details: SRB, 48 hours exposure
Method in brief: as §1

[3] = tested on: HMEC1; assay: Inhibition of cells growth by colorimetric assay (SRB), HMEC1; format: cell-based; details: SRB, 48 hours exposure
Method in brief: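 Sulforhodamine B protein-stain readout (490 nm) after 48 h drug exposure, with GI, TGI and LC parameters calculated from triplicate means. Cells seeded at 5×10^3 per well, allowed 18 h drug-free attachment; dose range 10 to 10^−8 μg/ml, vehicle DMSO/EtOH/PBS (0.5:0.5:99).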

[4] = tested on: SK-OV-3; assay: Inhibition of cells growth by colorimetric assay (SRB), SK-OV-3; format: cell-based; details: SRB, 48 hours exposure
Method in brief: as §1

[5] = tested on: Myelo
Excerpt: (§2) Toxicity was asssessed by the methods reported in Toxicology in Vitro, 15 (2001) 571-577, J. Luber Narod et al.: “Evaluation of the use of in vitro methodolodies as tools for screening new compounds for potential in vivo toxicity”.

[6] = tested on: Liver
Excerpt: as §2

[7] = tested on: SK-BR-3; assay: Inhibition of cells growth by colorimetric assay (SRB), SK-BR-3; format: cell-based; details: SRB, 48 hours exposure
Method in brief: as §1

[8] = tested on: SK-MEL-28; assay: Inhibition of cells growth by colorimetric assay (SRB), SK-MEL-28; format: cell-based; details: SRB, 48 hours exposure
Method in brief: as §1

[9] = tested on: LNCaP; assay: Inhibition of cells growth by colorimetric assay (SRB), LNCaP; format: cell-based; details: SRB, 48 hours exposure
Method in brief: as §1

[10] = tested on: PANC-1; assay: Inhibition of cells growth by colorimetric assay (SRB), PANC-1; format: cell-based; details: SRB, 48 hours exposure
Method in brief: as §1

[11] = tested on: Heart
Excerpt: as §2

[12] = tested on: Skeletal
Excerpt: as §2

[13] = tested on: Kidney
Excerpt: as §2

[14] = tested on: A-549; assay: Inhibition of cells growth by colorimetric assay (SRB), A-549; format: cell-based; details: SRB, 48 hours exposure
Method in brief: as §1

[15] = tested on: LoVo; assay: Inhibition of cells growth by colorimetric assay (SRB), LoVo; format: cell-based; details: SRB, 48 hours exposure
Method in brief: as §1

[16] = tested on: K-562; assay: Inhibition of cells growth by colorimetric assay (SRB), K-562; format: cell-based; details: SRB, 48 hours exposure
Method in brief: as §1

[17] = tested on: LoVo-Dox; assay: Inhibition of cells growth by colorimetric assay (SRB), LoVo-Dox; format: cell-based; details: SRB, 48 hours exposure
Method in brief: as §1

[18] = tested on: IGROV-ET; assay: Inhibition of cells growth by colorimetric assay (SRB), IGROV-ET; format: cell-based; details: SRB, 48 hours exposure
Method in brief: as §1

[19] = tested on: DU-145; assay: Inhibition of cells growth by colorimetric assay (SRB), DU-145; format: cell-based; details: SRB, 48 hours exposure
Method in brief: as §1

Q: For `COc1cc2c(cc1OC(=O)c1cc3ccccc3oc1=O)CCN[C@]21CS[C@@H]2c3c(OC(C)=O)c(C)c4c(c3[C@H](COC1=O)N1C2[C@H]2c3c(cc(C)c(OC)c3O)C[C@@H]([C@@H]1O)N2C)OCO4` (some centres unmarked) [Compound 76], which “TGI HT-29” value ([1]; HT-29) is on record?
A: The value was 6.18E-09.

Q: And the GI50 ([1]; Homo sapiens, HT-29, 48 h, HT-29, read-out: GI50 HT-29)?
A: The GI50 was 1.28 nM.

Q: What about the LC50 (concentration for 50% cell killing) ([1]; Homo sapiens, HT-29, 48 h, read-out: LC50 HT-29, HT-29) of the same molecule?
A: Its LC50 (concentration for 50% cell killing) is 4520 nM.

Q: What about the GI50 ([2]; Homo sapiens, IGROV-1, 48 h, IGROV, read-out: GI50 IGROV) of the same molecule?
A: The GI50 was 0.192 nM.

Q: And the CC50 ([2]; Homo sapiens, IGROV-1, 48 h, read-out: LC50 IGROV, IGROV)?
A: The CC50 was 1.66 nM.

Q: What about the “TGI IGROV” value ([2]; IGROV) of the same molecule?
A: Its value is 4.56E-10.

Q: And the “TGI HMEC-1” value ([3]; HMEC-1)?
A: The value was 6.55E-09.

Q: And the GI50 ([3]; Homo sapiens, HMEC-1, 48 h, HMEC-1, read-out: GI50 HMEC-1)?
A: Its GI50 is 1.83 nM.

Q: And the LC50 ([3]; Homo sapiens, HMEC-1, 48 h, read-out: LC50 HMEC-1, HMEC-1)?
A: The LC50 was 186 nM.

Q: What about the GI50 ([4]; Homo sapiens, SK-OV-3, 48 h, SK-OV3, read-out: GI50 SK-OV3) of the same molecule?
A: The GI50 was 0.293 nM.

Q: What about the LC50 ([4]; Homo sapiens, SK-OV-3, 48 h, read-out: LC50 SK-OV3, SK-OV3) of the same molecule?
A: The LC50 was 4810 nM.

Q: What about the “TGI SK-OV3” value ([4]; SK-OV3) of the same molecule?
A: Its value is 8.93E-10.

Q: What about the “Toxicity Data Myelo” value [5] of the same molecule?
A: The value was 8.19E-09.

Q: And the “Toxicity Data Liver” value [6]?
A: The value was 1.35E-08.

Q: And the GI50 ([7]; Homo sapiens, SK-BR-3, 48 h, SK-BR3, read-out: GI50 SK-BR3)?
A: Its GI50 is 0.337 nM.

Q: And the CC50 ([7]; Homo sapiens, SK-BR-3, 48 h, read-out: LC50 SK-BR3, SK-BR3)?
A: The CC50 was 6.17 nM.

Q: What about the “TGI SK-BR3” value ([7]; SK-BR3) of the same molecule?
A: Its value is 1.24E-09.

Q: And the GI50 ([8]; Homo sapiens, SK-MEL-28, 48 h, MEL-28, read-out: GI50 MEL-28)?
A: Its GI50 is 0.622 nM.

Q: And the CC50 ([8]; Homo sapiens, SK-MEL-28, 48 h, read-out: LC50 MEL-28, MEL-28)?
A: Its CC50 is 8.28 nM.

Q: What about the “TGI MEL-28” value ([8]; MEL-28) of the same molecule?
A: The value was 2.51E-09.

Q: And the CC50 ([9]; Homo sapiens, LNCaP, 48 h, read-out: LC50 LNCAP, LNCAP)?
A: Its CC50 is 0.891 nM.

Q: What about the GI50 ([9]; Homo sapiens, LNCAP, read-out: GI50 LNCAP) of the same molecule?
A: Its GI50 is 0.217 nM.

Q: And the “TGI LNCAP” value ([9]; LNCAP)?
A: The value was 4.40E-10.

Q: And the GI50 ([10]; Homo sapiens, PANC-1, 48 h, PANC-1, read-out: GI50 PANC-1)?
A: Its GI50 is 1.22 nM.

Q: And the LC50 (concentration for 50% net cell kill) ([10]; Homo sapiens, PANC-1, 48 h, read-out: LC50 PANC-1, PANC-1)?
A: Its LC50 (concentration for 50% net cell kill) is 44.1 nM.

Q: And the “TGI PANC-1” value ([10]; PANC-1)?
A: Its value is 4.68E-09.

Q: And the “Toxicity Data Heart” value [11]?
A: Its value is 1.62E-08.

Q: What about the “Toxicity Data Skeletal” value [12] of the same molecule?
A: Its value is 2.15E-09.

Q: And the “Toxicity Data Kidney” value [13]?
A: Its value is 3.20E-09.

Q: What about the “TGI A-549” value ([14]; A-549) of the same molecule?
A: Its value is 4.31E-09.

Q: And the GI50 ([14]; Homo sapiens, A549, 48 h, A-549, read-out: GI50 A-549)?
A: Its GI50 is 2.06 nM.

Q: And the LC50 (concentration for 50% cell killing) ([14]; Homo sapiens, A549, 48 h, read-out: LC50 A-549, A-549)?
A: The LC50 (concentration for 50% cell killing) was 9.07 nM.

Q: And the GI50 ([15]; Homo sapiens, LoVo, 48 h, LOVO, read-out: GI50 LOVO)?
A: The GI50 was 1.03 nM.

Q: And the LC50 (concentration for 50% cell killing) ([15]; Homo sapiens, LoVo, 48 h, read-out: LC50 LOVO, LOVO)?
A: Its LC50 (concentration for 50% cell killing) is 10.8 nM.

Q: What about the “TGI LOVO” value ([15]; LOVO) of the same molecule?
A: Its value is 3.30E-09.

Q: What about the GI50 ([16]; Homo sapiens, K562, 48 h, K-562, read-out: GI50 K-562) of the same molecule?
A: Its GI50 is 0.00278 nM.

Q: And the LC50 (50% cell killing) ([16]; Homo sapiens, K562, 48 h, read-out: LC50 K-562, K-562)?
A: Its LC50 (50% cell killing) is 0.351 nM.

Q: And the “TGI K-562” value ([16]; K-562)?
A: The value was 3.78E-11.

Q: What about the GI50 ([17]; Homo sapiens, 48 h, LOVO-DOX, read-out: GI50 LOVO-DOX) of the same molecule?
A: Its GI50 is 13.9 nM.

Q: What about the CC50 ([17]; Homo sapiens, 48 h, read-out: LC50 LOVO-DOX, LOVO-DOX) of the same molecule?
A: The CC50 was 107 nM.

Q: What about the “TGI LOVO-DOX” value ([17]; LOVO-DOX) of the same molecule?
A: Its value is 4.70E-08.

Q: And the GI50 ([18]; Homo sapiens, 48 h, IGROV-ET, read-out: GI50 IGROV-ET)?
A: Its GI50 is 1.52 nM.

Q: What about the CC50 ([18]; Homo sapiens, 48 h, read-out: LC50 IGROV-ET, IGROV-ET) of the same molecule?
A: Its CC50 is 21 nM.

Q: And the “TGI IGROV-ET” value ([18]; IGROV-ET)?
A: Its value is 3.92E-09.

Q: What about the “TGI DU-145” value ([19]; DU-145) of the same molecule?
A: The value was 6.16E-10.

Q: What about the GI50 ([19]; Homo sapiens, DU-145, 48 h, DU-145, read-out: GI50 DU-145) of the same molecule?
A: Its GI50 is 0.249 nM.

Q: What about the CC50 ([19]; Homo sapiens, DU-145, 48 h, read-out: LC50 DU-145, DU-145) of the same molecule?
A: The CC50 was 2140 nM.
